The text below walks through data of patent US10328077B2 (CELGENE CORPORATION, priority 2016, dated 2019).

SMILES strings stand for the structures.

The target in test [1] is human LSD-1 (Homo sapiens (Human), UniProt O60341). Nature of the test: In vitro enzyme inhibition assay LSD-1 (TR-FRET). The class given is biochemical. Particulars: TR-FRET, H3K4me1-biotin labeled peptide. An excerpt:
This assay determines the ability of a test compound to inhibit LSD-1 demethylase activity.
The enzymatic assay of LSD-1 activity is based on Time Resolved-Fluorescence Resonance Energy Transfer (TR-FRET) detection.

Test [2] has as its system CD11b expression in THP-1 (AML) cells. Nature of the test: LSD-1 CD11b cellular assay (flow cytometry). Particulars: Homo sapiens, THP-1, 96 h, read-out: THP-1 IC50.

In the case of `CN(C)c1ccc(-c2c(-c3ccc(C#N)c(F)c3)nc(N3CCC(N)CC3)n(C)c2=O)cn1` [Example 57, 4-[2-(4-amino-piperidin-1-yl)-5-(6-dimethylamino-pyridin-3-yl)-1-methyl-6-oxo-1,6-dihydro-pyrimidin-4-yl]-2-fluoro-benzonitrile], the 50% inhibitory concentration (IC50) in test [1] and in test [2] was under 100 nM in each case.

As to `CCc1ccc(-c2c(-c3ccc(C#N)cc3)nc(N3CCC(N)CC3)n(C)c2=O)cn1` [Example 10, 4-[2-(4-amino-piperidin-1-yl)-5-(6-ethyl-pyridin-3-yl)-1-methyl-6-oxo-1,6-dihydro-pyrimidin-4-yl]-benzonitrile], the figures for the IC50 in test [1] and in test [2] were under 100 nM and 100 to 1000 nM, respectively.

For the compound `CCOc1ncc(-c2c(-c3ccc(C#N)c(F)c3)nc(N3CCC(N)CC3)n(C)c2=O)cc1F` [Example 93, 4-[2-(4-aminopiperidin-1-yl)-5-(6-ethoxy-5-fluoropyridin-3-yl)-1-methyl-6-oxopyrimidin-4-yl]-2-fluorobenzonitrile], the IC50 in test [1] and in test [2] was under 100 nM in each case.

`Cn1c(N2CCC(N)CC2)nc(-c2ccc(C#N)c(F)c2)c(-c2ccc3c(c2)CNC3=O)c1=O` [Example 42, 4-[2-(4-amino-piperidin-1-yl)-1-methyl-6-oxo-5-(1-oxo-2,3-dihydro-1H-isoindol-5-yl)-1,6-dihydro-pyrimidin-4-yl]-2-fluoro-benzonitrile]: the IC50 in test [1] was under 100 nM; in test [2], 100 to 1000 nM.

With `Cn1c(N2CCC(N)CC2)nc(-c2ccc(C#N)c(F)c2)c(-c2cccc(F)c2)c1=O` [Example 102, 4-[2-(4-aminopiperidin-1-yl)-5-(3-fluorophenyl)-1-methyl-6-oxopyrimidin-4-yl]-2-fluorobenzonitrile], the 50% inhibitory concentration (IC50) in test [1] and in test [2] was under 100 nM in each case.

On to `CNC1CCN(c2nc(-c3ccc(C#N)c(F)c3)c(-c3ccc(OC)c(F)c3)c(=O)n2C)CC1` [Example 12, 2-fluoro-4-[5-(3-fluoro-4-methoxy-phenyl)-1-methyl-2-(4-methylamino-piperidin-1-yl)-6-oxo-1,6-dihydro-pyrimidin-4-yl]-benzonitrile], for which the IC50 in test [1] and in test [2] was under 100 nM throughout.

In the case of `CNc1ccc(-c2c(-c3ccc(C#N)c(F)c3)nc(N3CCC(N)CC3)n(C)c2=O)cc1` [Example 90, 4-[2-(4-aminopiperidin-1-yl)-1-methyl-5-[4-(methylamino)phenyl]-6-oxopyrimidin-4-yl]-2-fluorobenzonitrile], the concentration for half-maximal inhibition (IC50) in test [1] and in test [2] was under 100 nM in each case.

Turning to `CNC(=O)c1ccc(-c2c(-c3ccc(C#N)c(F)c3)nc(N3CCC(N)CC3)n(C)c2=O)cn1` [Example 50, 5-[2-(4-amino-piperidin-1-yl)-4-(4-cyano-3-fluoro-phenyl)-1-methyl-6-oxo-1,6-dihydro-pyrimidin-5-yl]-pyridine-2-carboxylic acid methylamide], the IC50 in test [1] and in test [2] was under 100 nM throughout.

`Cn1c(N2CCC(N)CC2)nc(-c2ccc(C#N)cc2)c(-c2ccc(C(N)=O)c(F)c2)c1=O` [Example 41, 4-[2-(4-aminopiperidyl)-6-(4-cyanophenyl)-3-methyl-4-oxo(3-hydropyrimidin-5-yl)]-2-fluorobenzamide]: the half-maximal inhibitory concentration (IC50) in test [1] is under 100 nM; in test [2], 100 to 1000 nM.

For `COc1ccc(-c2c(-c3ccc(C#N)c(F)c3)nc(N3CCC(N)CC3)n(CC(N)=O)c2=O)cc1` [Example 16, 2-[2-(4-amino-piperidin-1-yl)-4-(4-cyano-3-fluoro-phenyl)-5-(4-methoxy-phenyl)-6-oxo-6H-pyrimidin-1-yl]-acetamide], the half-maximal inhibitory concentration (IC50) in test [1] and in test [2] was under 100 nM in each case.

With `COc1ccc(-c2c(-c3ccc(C#N)c(F)c3)nc(N3CCC[C@@H](N)C3)n(C)c2=O)cc1` [Example 30, 4-[2-((3R)-3-aminopiperidyl)-5-(4-methoxyphenyl)-1-methyl-6-oxohydro-pyrimidin-4-yl]-2-fluorobenzenecarbonitrile], the concentration for half-maximal inhibition (IC50) in test [1] and in test [2] was under 100 nM each time.

On to `Cn1c(N2CCC(N)CC2)nc(-c2ccc(C#N)c(F)c2)c(-c2ccc(OCCO)cc2)c1=O` [Example 96, 4-[2-(4-aminopiperidin-1-yl)-5-[4-(2-hydroxyethoxy)phenyl]-1-methyl-6-oxopyrimidin-4-yl]-2-fluorobenzonitrile], for which the IC50 in test [1] and in test [2] was under 100 nM in each case.

For the compound `COc1ccc(-c2c(-c3ccc(C#N)c(F)c3)nc(N(C)C[C@H]3CCNC3)n(C)c2=O)cc1` [Example 54, 2-fluoro-4-[5-(4-methoxy-phenyl)-1-methyl-2-(methyl-(3S)-pyrrolidin-3-ylmethyl-amino)-6-oxo-1,6-dihydro-pyrimidin-4-yl]-benzonitrile], the IC50 in test [1] and in test [2] was under 100 nM each time.

Regarding `Cn1c(N2CCC(N)CC2)nc(-c2ccc(C#N)c(F)c2)c(-c2ccc(F)c(F)c2)c1=O` [Example 104, 4-[2-(4-aminopiperidin-1-yl)-5-(3,4-difluorophenyl)-1-methyl-6-oxopyrimidin-4-yl]-2-fluorobenzonitrile], the IC50 in test [1] and in test [2] was under 100 nM in each case.

In the case of `COc1ccc(-c2c(-c3ccc(C#N)c(F)c3)nc(N3CCC(C)(N)CC3)n(C)c2=O)cc1F` [Example 32, 4-[2-(4-amino-4-methyl-piperidin-1-yl)-5-(3-fluoro-4-methoxy-phenyl)-1-methyl-6-oxo-1,6-dihydro-pyrimidin-4-yl]-2-fluoro-benzonitrile], the concentration for half-maximal inhibition (IC50) in test [1] and in test [2] was under 100 nM throughout.

As for `Cn1cc2cc(-c3c(-c4ccc(C#N)c(F)c4)nc(N4CCC(N)CC4)n(C)c3=O)ccc2n1` [Example 37, 4-[2-(4-aminopiperidyl)-1-methyl-5-(2-methyl(2H-indazol-5-yl))-6-oxohydropyrimidin-4-yl]-2-fluorobenzenecarbonitrile], the half-inhibitory concentration (IC50) in test [1] and in test [2] was under 100 nM throughout.

Consider `Cn1c(N2CCC(N)CC2)nc(-c2ccc(C#N)c(F)c2)c(-c2ccc3[nH]ccc3c2)c1=O` [Example 73, 4-[2-(4-amino-piperidin-1-yl)-5-(1H-indol-5-yl)-1-methyl-6-oxo-1,6-dihydro-pyrimidin-4-yl]-2-fluoro-benzonitrile], for which the IC50 in test [1] and in test [2] was under 100 nM in each case.

`CNCC1CN(c2nc(-c3ccc(C#N)c(F)c3)c(-c3ccc(OC)cc3)c(=O)n2C)C1` [Example 70, 2-fluoro-4-[5-(4-methoxy-phenyl)-1-methyl-2-(3-methylaminomethyl-azetidin-1-yl)-6-oxo-1,6-dihydro-pyrimidin-4-yl]-benzonitrile]: the half-inhibitory concentration (IC50) in test [1] and in test [2] was under 100 nM each time.

In the case of `CNC1CCN(c2nc(-c3ccc(C#N)c(F)c3)c(-c3ccc(N(C)C)nc3)c(=O)n2C)CC1` [Example 83, 4-[5-(6-dimethylamino-pyridin-3-yl)-1-methyl-2-(4-methylamino-piperidin-1-yl)-6-oxo-1,6-dihydro-pyrimidin-4-yl]-2-fluoro-benzonitrile], the IC50 in test [1] and in test [2] was under 100 nM throughout.

In the case of `COc1ccc(-c2c(-c3ccc(C#N)c(F)c3)nc(N3CCCNCC3)n(C)c2=O)cc1F` [Example 46, 4-[2-[1,4]diazepan-1-yl-5-(3-fluoro-4-methoxy-phenyl)-1-methyl-6-oxo-1,6-dihydro-pyrimidin-4-yl]-2-fluoro-benzonitrile], the half-inhibitory concentration (IC50) in test [1] and in test [2] was under 100 nM each time.

`Cn1c(N2CCC(N)CC2)nc(-c2ccc(C#N)c(F)c2)c(-c2ccc3occc3c2)c1=O` [Example 18, 4-[2-(4-amino-piperidin-1-yl)-5-benzofuran-5-yl-1-methyl-6-oxo-1,6-dihydro-pyrimidin-4-yl]-2-fluoro-benzonitrile]: the IC50 in test [1] and in test [2] was under 100 nM in each case.

Consider `Cn1c(N2CCC(N)CC2)nc(-c2ccc(C#N)c(F)c2)c(-c2ccc3cn[nH]c3c2)c1=O` [Example 77, 4-[2-(4-amino-piperidin-1-yl)-5-(1H-indazol-6-yl)-1-methyl-6-oxo-1,6-dihydro-pyrimidin-4-yl]-2-fluoro-benzonitrile], for which the half-maximal inhibitory concentration (IC50) in test [1] and in test [2] was under 100 nM in each case.

`CN(C)c1ccc(-c2c(-c3ccc(C#N)c(F)c3)nc(N3CCCNCC3)n(C)c2=O)cn1` [Example 63, 4-[2-[1,4]diazepan-1-yl-5-(6-dimethylamino-pyridin-3-yl)-1-methyl-6-oxo-1,6-dihydro-pyrimidin-4-yl]-2-fluoro-benzonitrile]: the IC50 in test [1] and in test [2] was under 100 nM in each case.

`COc1ccc(-c2c(-c3ccc(C#N)c(F)c3)nc(N3CC[C@@H](N)C3)n(C)c2=O)cc1F` [Example 27, 4-[2-((3R)-3-aminopyrrolidinyl)-5-(3-fluoro-4-methoxyphenyl)-1-methyl-6-oxohydropyrimidin-4-yl]-2-fluorobenzenecarbonitrile]: the half-inhibitory concentration (IC50) in test [1] and in test [2] was under 100 nM in each case.

Take `Cn1c(N2CCC(N)CC2)nc(-c2ccc(C#N)c(F)c2)c(-c2ccc(N3CCCC3)nc2)c1=O` [Example 60, 4-[2-(4-amino-piperidin-1-yl)-1-methyl-6-oxo-5-(6-pyrrolidin-1-yl-pyridin-3-yl)-1,6-dihydro-pyrimidin-4-yl]-2-fluoro-benzonitrile]: the 50% inhibitory concentration (IC50) in test [1] and in test [2] was under 100 nM throughout.

As to `CN(C)C1CCN(c2nc(-c3ccc(C#N)c(F)c3)c(-c3ccc4c(cnn4C)c3)c(=O)n2C)CC1` [Example 72, 4-[2-(4-dimethylamino-piperidin-1-yl)-1-methyl-5-(1-methyl-1H-indazol-5-yl)-6-oxo-1,6-dihydro-pyrimidin-4-yl]-2-fluoro-benzonitrile], the concentration for half-maximal inhibition (IC50) in test [1] and in test [2] was under 100 nM each time.
